# Assay results from patent US20090042208A1, “Assays for erectile and bladder dysfunction and vascular health” (priority 2007, published 2009).
# Marks after values point to notes of the source that are not given here. Ends that are not written are not given here.
# What was measured:
# retired breeder rats = assay: Longest visually observed erection and ICP/BP after tadalafil, pVAX-hSlo or both; type: in vivo, rat; details: tadalafil 2.5 mg/kg orally 2 h before; pVAX-hSlo 1000 μg intracorporal 1 month before
# Experimental: (§1) In a second set of animals (retired breeder, male Sprague Dawley rats) in which the effect of tadalafil was to be measured alone or in combination with pVAX-hSlo, 1000 μg pVAX-hSlo was administered to 10 animals 1 month prior to determination of erectile function and gene expression. Five of these animals were treated with 2.5 mg/kg of tadalafil orally two hours prior to ICP/BP measurement. A third group of five animals were untreated controls, and the fourth group of five animals treated with 2.5 mg/kg of tadalafil orally. two hours prior to ICP/BP measurement.
# ICP/BP measurement. ICP/BP was measured essentially as previously described (Christ et al. 1998; Melman et al. 2003). Briefly, animals were anesthetized by intraperitoneal injection of pentobarbital sodium (35 mg/kg). An incision was made in the perineum, and the corpus cavernosum exposed. The cavernous nerves were identified adjacent to the prostate gland. Direct electrostimulation of a cavernous nerve was performed with a delicate stainless steel bipolar hook electrode attached to the multi-jointed clamp. […] Prior to electrostimulation the longest visually observed erection was measured. […] The changes in ICP and systemic BP were recorded at each level of neurostimulation. The mean ICP/BP, standard deviation, and analysis of variance were calculated for each of the treatment groups.
# [1] = test system: Vcsa1 and Slo transcripts in corporal tissue; assay: Quantitative RT-PCR of Vcsa1 and Slo transcripts in corpora after tadalafil, pVAX-hSlo or both; type: in vivo, rat; details: tadalafil 2.5 mg/kg orally 2 h before; pVAX-hSlo 1000 μg 1 month before; or both
# Experimental: as §1
# RNA Isolation from corporal tissue. Following the ICP/BP measurement, animals were euthanized and corporal tissues isolated and flash frozen in liquid nitrogen. […]
# Measurement of gene expression by quantitative RT-PCR. RNA extracted either from corporal tissue or transfected corporal smooth muscle cells was used to analyze gene expression by quantitative RT-PCR. […] Real-time quantitative PCR analysis was performed using the 7300 real-time PCR system (Applied Biosystems, Foster City, Calif.).
# The PCR reactions for all samples were performed in 96-well plates, with 2 μl cDNA, 100 nM each primer, and 12.5 μl of Sybr Green in a 25-μl reaction volume. […] The relative quantified value for each target gene in corpora of treated rats is expressed as 2^−(Ct−Cc) (Ct and Cc are the mean threshold cycle differences after normalizing to RPL24). […]
# [2] = test system: isolated corporal smooth muscle tissue; assay: Contractility (relaxation rate) of isolated corporal smooth muscle strips; design: species or system rat
# Experimental: Studies of contractility of isolated smooth muscle tissue were carried out as described previously (Chang et al. 2003, Spektor et al. 2002). Four longitudinal strips of cavernous tissue from the crura of old animals (n=4) were dissected free from the tunica albuginea and were suspended between two small surgical hooks in a tension-measuring device (Multimyograph Model 610M, Copenhagen, Denmark) that allows simultaneous monitoring of four muscle strips. Tissue was equilibrated for 90 min in 6 ml Krebs-Henseleit buffer composed of 110 mM NaCl, 4.8 mM. KCl, 2.5 mM CaCl2, 1.2 mM MgSO4, 1.2 mM KH2PO4, 25 mM NaHCO3, 11 mM glucose, and dextrose in glass-distilled water. Organ chambers were maintained at 37° C. and continuously bubbled with 95% O2 and 5% CO2 to maintain a mean pH of 7.4±0.1. Continuous recording of tension developed by the muscle strips was carried out using Powerlab software (Chart version 4.2.4, ADinstruments, CO) on a dedicated computer. Strips of corpus cavernosum first were precontracted with phenylephrine (10^−6 M). Then, relaxation was induced using CNP (10^−6 M). […] Results from four separate strips from four animals were averaged and the significance determined by the Student's t test.
# [3] = test system: retired breeder male Sprague-Dawley rats; assay: ICP/BP and blood pressure after intracorporal injection of sialorphin; type: in vivo, rat; details: 10 and 100 μg intracorporal
# Experimental: Experiments were carried out on 9- to 10-month-old retired breeder male Sprague-Dawley rats weighing more than 500 g (as described in Melman et al. 2005). When measurements were complete, animals were killed by placement within a CO2 gas chamber. All protocols were approved by the Animal Use Committee and Internal Review board at the Albert Einstein College of Medicine.
# The sialorphin peptide (2 mg) was dissolved in 0.5 ml of 0.01 N acetic acid and then was vortexed, and the solution was centrifuged for a few seconds at approximately 1000 g and 4° C. (to gather all the liquid at the bottom of the tube). The stock solution was stored in 25-μl aliquots (100 μg) at −70° C. Before use, the stock was thawed on ice, and phosphate buffered saline (pH 7.4) was added to bring the volume to 150 μl.
# Intracorporal microinjection of sialorphin into rat corporal tissue was modified from previously described procedures, where plasmids were injected intracorporeally to investigate their effect on the ICP/BP ratio (Christ et al. 1998, 2004; Melman et al. 2005). […] The changes in ICP and systemic BP were recorded at both levels of neurostimulation. […] Mean ICP/BP (n=7) and standard deviation were calculated before and after treatment. Significant change in the ICP/BP value from that of the pretreatment group was determined by Student's t test.
compound,measurement,setting,value
CN1CC(=O)N2[C@H](c3ccc4c(c3)OCO4)c3[nH]c4ccccc4c3C[C@@H]2C1=O [tadalafil],"Longest erection time, difference to untreated control groups",retired breeder rats,about 100 seconds
same,Longest measured erection time,retired breeder rats,approximately 210 seconds
same,Vcsa1 expression increase versus untreated animals,[1],approximately 4 fold
C-type natriuretic peptide [CNP],Increase in the relaxation rate of the tissue,"[2]; 1 μM CNP, versus carrier",67%
same,Rate of Tension Loss,"[2]; strips precontracted with 1 μM phenylephrine, 1 μM CNP and/or 1 μg/ml sialorphin",0.087* g/min
"QHNPR [sialorphin, QHNPR]",Effect on systemic blood pressure,[3],no effect
